Four compounds from patent US20180016304A1, “SELF-ASSEMBLING ULTRASHORT ALIPHATIC DEPSIPEPTIDES FOR BIOMEDICAL APPLICATIONS” (Agency for Science, Technology and Research, priority 2015, published 2018) can be followed below.

In data set [1] the test system is human mesenchymal stem cells (hMSCs). Kind of data set: Cytocompatibility, WST-1 cell metabolic activity assay. Format: cell-based. Particulars: for cytocompatibility / tolerance: fragments particularly if the acidity was neutralized. On the procedure:
Human mesenchymal stem cells, hMSCs, were obtained from Lonza (Basel, Switzerland) and cultured in MSC growth medium (MSCGM) with 5% fetal bovine serum, 2% L-glutamine and 0.1% penicillin-streptomycin (Lonza). The cell metabolic activity was measured with the Cell Proliferation Reagent WST-1 assay (Roche Diagnostics, Mannheim, Germany). Briefly, 5000 hMSC cells were seeded in each well and media containing the sample was added to the desired concentration (n=6). After incubation for 72 hours at 37° C., the media was aspirated and media containing 10% WST-1 reagent added for 2 hours. The absorbance at 450 nm was measured subtracting the absorbance at 600 nm. The absorbance readings were further normalized against cells cultured in media containing an equivalent volume of PBS (i.e. 100% cell survival) to determine the percentage cell viability. Cells cultured with an equivalent volume of ethanol were used as a negative control (i.e. 100% cell death).
In order to determine depsipeptide cytotoxicity and effect on cell proliferation, human mesenchymal stem cells (hMSCs) were incubated with various concentrations of the depsipeptide and their metabolic activity and viability was tested after 3 days. Cell viability decreased with increasing depsipeptide concentration. […] To address concerns that the cytotoxicity could be attributed to the degradation products following hydrolysis of the ester bond, the possible degradation products, the peptide Ac-ILV and depsipeptide HO-aGK-NH2, were also evaluated.
(In general: Tetrazolium assays rely on reduction of a dye to a coloured formazan, in cell work by metabolically active cells.)

Data set [2] in a line: Minimum gelation concentration / hydrogel formation. Format: physicochemical. As for the experimental part: In order to determine the minimum gelation concentration in water, the depsipeptide was dissolved in MilliQ water.
Liskamp reported depsipetides based on the amylin (20-29) structure.

The conditions of data set [3]: 2 mg/mL in PBS. As for the experimental part: In order to test the degradation ability of the depsipeptide, 2 mg/mL was dissolved in PBS puffer at pH 5.7, 7.3 and 8.5. All samples were incubated at 37° C. and analysed by HPLC-MS.
In order to characterize the degradation products of the depsipeptide Ac-ILV-OH and HO-aGK-NH2 were synthesized and the retention time was determined by HPLC-MS.

Where [4] appears, read: MilliQ water, depsipeptide sample left at room temperature.

Where two headings read alike, the source gives them in different places. Where a SMILES comes first, the peptide text is derived from it.

With `CC[C@H](C)[C@H](NC(C)=O)C(=O)N[C@@H](CC(C)C)C(=O)N[C@H](C(=O)O)C(C)C` [Ac-ILV] (Ac-Ile-Leu-Val-OH), the cytocompatibility / tolerance result in data set [1] (3 days) is recorded as “extremely well tolerated”.
Turning to `CC[C@H](C)[C@H](NC(C)=O)C(=O)N[C@@H](CC(C)C)C(=O)N[C@H](C(=O)OC(C)C(=O)NCC(=O)N[C@@H](CCCCN)C(N)=O)C(C)C` (some centres unmarked) [Ac-ILVaGK-NH2, Acetylated isoleucine-leucine-valine-lactic acid-glycine-lysine] (HELM PEPTIDE1{[ac].I.L.V.[CC(O[*:1])C(=O)[*:2]].G.K.[am]}$$$$V2.0), the “IC50 (cell viability)” value in data set [1] (3 days (72 hours) incubation, WST-1) was “approximately 15 mg/mL”. For the same compound, the hydrogel formation entry in data set [2] (100 mg/mL dissolved in 90% water, 10% 10xPBS added) is reported as “instantaneous hydrogel formation”. Further, the minimum gelation concentration in data set [2] (setting [4]) worked out at 100 mg/mL; in data set [2] (with PBS buffer added (1x PBS)) it was 60 mg/mL. The “minimum gelation concentration relative to parent peptide Ac-IK6-NH2” value in data set [2] (in water as well as in 1xPBS buffer) is “about 10 times”. For the same compound, the “stability (degradation)” value in data set [3] (pH 5.7, 37° C., compared with pH 7.3 and 8.5) is “most”; in data set [3] (pH 8.5, 37° C., compared with pH 5.7 and 7.3) it was “least stable”.
Regarding `CC(O)C(=O)NCC(=O)N[C@@H](CCCCN)C(N)=O` (some centres unmarked) [HO-aGK-NH2] (HELM PEPTIDE1{[CC(O)C(=O)[*:2]].G.K.[am]}$$$$V2.0), in data set [1] (3 days, WST-1), the “concentration at which significant cytotoxicity was demonstrated” value was above 10000 µg/mL. Besides, in data set [1] (3 days), the cytocompatibility / tolerance entry is given as “extremely well tolerated”.
For the compound “Ac-IK6-NH2: parent ultrashort self-assembling peptide Ac-ILVAGK-NH2, without α-hydroxy acid [reference compound]”, the minimum gelation concentration in data set [2] (setting [4]) came out at 10 mg/mL.
